Laboratory results published in US20260224716A1, “PTH ANALOGS FOR THE TREATMENT OF HYPOPARATHYROIDISM” (priority 2020, published 2026).

Columns and labels:
serum calcium [1] = assay: Serum calcium in rats, repeat daily dosing 7 days (Example 13); assay type: in vivo, Sprague-Dawley rats; conditions: daily SC 7 days; SEQ ID NO: 77 20 nmol/kg, SEQ ID NO: 87 20 or 40 nmol/kg; returned to initial values after washout
Method: Female Sprague-Dawley rats were single or double-housed and randomly assigned to four groups (n=5-6 per group) as described in Table 20, and then weighed.
After the treatment ceased, the animals were monitored on days 9 and 11 (washout period).
Body weight and food intake were measured on days 0, 1, 3, 5 and 7. Ca was measured on days 0, 1, 2, 3, 4, 7, 9 and 11. Pi was determined on the same samples, except for days 9 and 11.

[2] = Pharmacokinetics of SEQ ID 87 in monkeys, single subcutaneous dose (Example 17); assay type: in vivo, cynomolgus monkeys; conditions: FIGS. 26A, 26B
Method: A total of three monkeys were used at each test dose. The monkeys ranged in age from 2-4 years old at beginning of the study and having a weight of at least 2.5 kg. The dose volume was 0.3 mL/kg. Individual dose volumes were calculated based on the animals' most recently recorded body weight.
Animals were not fasted prior to collection. Blood was be collected via the femoral vein (or another appropriate site). Blood samples were maintained at 5±3° C. (wet ice or equivalent) and centrifuged at 5±3° C. within 1 hour of the collection of each blood sample. The resultant plasma was transferred to a tube and then stored under conditions set to maintain −75±15° C. until analysis.
Pharmacokinetic mean concentration-time data was analyzed using non-compartmental methods (Phoenix® WinNonlin® Version 7.0 or higher) based on the route of administration. The following parameters were calculated whenever possible and as data allows: Cmax, Tmax, and AUC. Descriptive statistics were generated using Phoenix WinNonlin.

serum calcium [3] = assay: Serum calcium in parathyroidectomized rats, ten daily doses (Example 16); assay type: in vivo, Sprague-Dawley rats; conditions: for starting serum calcium concentration: before first dose
Excerpt: (§1) Rats were randomly distributed among 5 groups and injected subcutaneously for ten consecutive days with either vehicle or SEQ ID NO; 87 (10, 25, 40 nmol/kg; n=8). Two separate vehicle treated groups of rats were studied. The first represented control rats surgically managed like the remaining rats, but their parathyroid gland was not removed (sham control). The second vehicle control group represented rats that were surgically managed in the same manner as the SEQ ID NO: 87 treated rats. Following surgery and one week prior to testing all the rats were placed on a defined diet at a specific calcium concentration.
(§2) A 96-well plate spectrophotometer (SpectraMax M5, Molecular Devices) was employed for detection. […] Absorbance (Ab) was measured at 650 nm wavelength. Manufacturer provided linearity up to 15 mg/dL. The serum calcium was measured immediately prior to injection (time 0 hour), followed by 24, 48, 72, and 96 hours.

serum calcium [4] = assay: Serum calcium in rats after single subcutaneous dose (Example 10); assay type: in vivo, Sprague-Dawley rats; conditions: 30 or 60 nmol/kg SC single dose; increase within the physiological range
Method: A 96-well plate spectrophotometer (SpectraMax M5, Molecular Devices) was employed for detection. Serum Ca and Pi were measured on days 0, 1, 2, 4, 5 and 7. Absorbance (Ab) was measured at 650 nm for Ca and 340 nm for Pi. Manufacturer linearity is provided up to 15 mg/dl for Ca and 10 mg/dl for Pi.

[5] = Cleavage half-life / conversion of PTH prodrugs in PBS pH 7.4, 37° C. by LC-MS; assay type: physicochemical; conditions: for Percentage of prodrug: prodrug in PBS, LC-MS peak areas
Summary of the method: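 Prodrugs incubated in PBS pH 7.4 at 37 °C, aliquots sampled over time for LC-MS (10–80% acetonitrile/0.1% TFA gradient). Prodrug and drug quantified by relative peak areas; dissociation rate constant from log prodrug concentration versus time.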

serum phosphate = assay: Serum phosphate in parathyroidectomized rats, ten daily doses (Example 16); assay type: in vivo, Sprague-Dawley rats; conditions: for starting serum phosphate concentration: PTx rats, before first dose
Excerpt: as §1
Determination of phosphate levels was conducted with sampling at near-identical times to the serum calcium, differing only in the last days of the washout period. […] The starting phosphate level was 7.003 mg/dl, as compared to 11.317 mg/dl in the vehicle control group of the PTx rats. […] The difference between the two control groups was maintained through the course of the experiment. […] Efficacy was fully maintained through observation at Day 10, one day after the last administered dose. […] Twenty-five days after study initiation, all PTx-rats aligned as a group with increased phosphate, as compared to sham control rats.

PTHR1 = molecular target: T1, PTHR1 (Homo sapiens, UniProt Q03431); assay: cAMP Hunter Teriparatide Bioassay (CHO-K1 PTHR1 cells); assay type: cell-based
T1 construct: host or cells: CHO-K1
T1 sequence (Q03431 27-593): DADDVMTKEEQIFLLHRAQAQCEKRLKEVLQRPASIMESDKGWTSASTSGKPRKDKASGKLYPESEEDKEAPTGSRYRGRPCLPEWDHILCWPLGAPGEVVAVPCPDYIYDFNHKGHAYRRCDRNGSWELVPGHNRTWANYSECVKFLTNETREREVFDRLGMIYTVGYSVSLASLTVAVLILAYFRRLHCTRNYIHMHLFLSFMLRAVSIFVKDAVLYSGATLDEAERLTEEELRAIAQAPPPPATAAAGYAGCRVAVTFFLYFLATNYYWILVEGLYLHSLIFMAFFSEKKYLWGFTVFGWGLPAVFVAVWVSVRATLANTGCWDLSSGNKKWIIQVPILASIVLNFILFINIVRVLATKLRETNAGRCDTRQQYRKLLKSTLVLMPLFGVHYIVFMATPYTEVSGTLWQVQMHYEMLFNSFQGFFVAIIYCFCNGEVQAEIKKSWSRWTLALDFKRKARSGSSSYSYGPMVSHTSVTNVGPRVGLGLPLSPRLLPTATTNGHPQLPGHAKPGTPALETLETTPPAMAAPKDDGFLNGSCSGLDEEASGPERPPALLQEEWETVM
Method: The assessment of the bioactivity of a prodrug relative to its drug form was conducted in a proprietary commercial assay as contracted with Eurofins-Discover Rx Corporation win a cAMP Hunter® Teriparatide Bioassay (95-0118Y2). An 11-point dose curve in agonist mode was conducted for each individual peptide or incubation condition. Every sample was run at each dose in triplicate.
An 11-point dose curve in agonist mode was conducted for each individual peptide or incubation condition. Every sample was run at each dose in triplicate.
An 11-point dose curve in agonist mode was conducted for each individual peptide at each concentration. Every sample was run at each dose in triplicate.

serum calcium [6] = assay: Serum calcium in parathyroidectomized rats, four daily doses (Example 15); assay type: in vivo, Sprague-Dawley rats; conditions: for starting serum calcium concentration: before first dose
Excerpt: as §1, with “subcutaneously for four consecutive days” for “subcutaneously for ten consecutive days”, “either vehicle (sterile 0.9% NaCl solution; n=6), or SEQ” for “either vehicle or SEQ”
as §2

[7] = PTx rats, treatment group 10 nmol/kg
[8] = PTx rats, treatment group 25 nmol/kg
[9] = PTx rats, treatment group 40 nmol/kg

Compound: CC[C@H](C)[C@H](NC(=O)[C@H](CCC(=O)O)NC(=O)[C@H](CO)NC(=O)[C@@H](NC(=O)[C@H](CO)NC(=O)CN(C)C(=O)[C@H](N)CCCCNC(=O)CC[C@H](NC(=O)COCCOCCNC(=O)COCCOCCNC(=O)CC[C@H](NC(=O)CCCCCCCCCCCCCCCCC(=O)O)C(=O)O)C(=O)O)C(C)C)C(=O)N[C@@H](CCC(N)=O)C(=O)N[C@@H](CC(C)C)C(=O)N[C@@H](CCSC)C(=O)N[C@@H](Cc1c[nH]cn1)C(=O)N[C@@H](CC(N)=O)C(=O)N[C@@H](CC(C)C)C(=O)NCC(=O)N[C@@H](CCCCN)C(=O)N[C@@H](Cc1c[nH]cn1)C(=O)N[C@@H](CC(C)C)C(=O)N[C@@H](CC(N)=O)C(=O)N[C@@H](CO)C(=O)N[C@@H](CCSC)C(=O)N[C@@H](CCC(=O)O)C(=O)N[C@@H](CCCNC(=N)N)C(=O)N[C@H](C(=O)N[C@@H](CCC(=O)O)C(=O)N[C@@H](Cc1c[nH]c2ccccc12)C(=O)N[C@@H](CC(C)C)C(=O)N[C@@H](CCCNC(=N)N)C(=O)N[C@@H](CCCCN)C(=O)N[C@@H](CCCCN)C(=O)N[C@@H](CC(C)C)C(=O)N[C@@H](CCC(N)=O)C(=O)N[C@@H](CC(=O)O)C(=O)N[C@H](C(=O)N[C@@H](Cc1c[nH]cn1)C(=O)N[C@@H](CCCCNC(=O)CC[C@H](NC(=O)COCCOCCNC(=O)COCCOCCNC(=O)CC[C@H](NC(=O)CCCCCCCCCCCCCCCCC(=O)O)C(=O)O)C(=O)O)C(=O)O)C(C)C)C(C)C [SEQ ID NO: 87]
- Serum Ca levels during the treatment period (serum calcium [1]): gradually increased
- difference of prodrug to drug serum concentration [2]: ~4 fold
- serum calcium levels versus sham control (serum calcium [3]; PTx rats, 10, 25, 40 nmol/kg daily SC, after two days): virtually identical to sham control rats
- serum calcium levels versus sham control (serum calcium [3]; PTx rats, mid and high-dose (25, 40 nmol/kg), four and seven days): matched or exceeded what was observed in the sham control rats
- starting serum calcium concentration (serum calcium [3]; [7]): 4.5 mg/dL
- starting serum calcium concentration (serum calcium [3]; [8]): 5.028 mg/dL
- starting serum calcium concentration (serum calcium [3]; [9]): 5.108 mg/dL
- starting serum calcium, decreased level versus PTx vehicle (serum calcium [3]; treatment group 10 nmol/kg): 3.4%
- starting serum calcium, increased level versus PTx vehicle (serum calcium [3]; treatment group 25 nmol/kg): 7.9%
- starting serum calcium, increased level versus PTx vehicle (serum calcium [3]; treatment group 40 nmol/kg): 9.6%
- time of peak of serum calcium increase (serum calcium [4]): 3 days
- half-life ([5]; PBS buffer, pH 7.4, PBS, LCMS over 192 hours, FIG. 10): 112 h
- Percentage of prodrug ([5]; 0 h): 100%
- Percentage of prodrug ([5]; 48 h): 74%
- Percentage of prodrug ([5]; 72 h): 62%
- Percentage of prodrug ([5]; 120 h): 46%
- Percentage of prodrug ([5]; 192 h): 31%
- serum phosphate levels versus sham control (serum phosphate; PTx rats, 10, 25, 40 nmol/kg daily SC, after seven days): comparable to sham control rats
- starting serum phosphate concentration (serum phosphate; treatment group 10 nmol/kg): 11.412 mg/dL
- starting serum phosphate concentration (serum phosphate; treatment group 25 nmol/kg): 10.673 mg/dL
- starting serum phosphate concentration (serum phosphate; treatment group 40 nmol/kg): 8.152 mg/dL
- starting serum phosphate, decreased level versus PTx vehicle (serum phosphate; high-dose group 40 nmol/kg): 28%
- starting serum phosphate, increase versus PTx vehicle (serum phosphate; low-dose group 10 nmol/kg): 1.0%
- starting serum phosphate, decreased level versus PTx vehicle (serum phosphate; mid-dose group 25 nmol/kg): 5.7%
- Hillslope (PTHR1; FIG. 11, prodrug incubated in PBS 1 day): 1.421
- Hillslope (PTHR1; FIG. 11, prodrug incubated in PBS 2 day): 2.102
- Hillslope (PTHR1; FIG. 11, prodrug incubated in PBS 3 day): 1.825
- Hillslope (PTHR1; FIG. 11, prodrug incubated in PBS 5 day): 2.102
- Hillslope (PTHR1; FIG. 11, prodrug incubated in PBS 8 day): 2.172
- PTH agonism (PTHR1; conclusions from Table 14, FIGS. 8A-8C): full PTH agonist of high nM potency
- serum calcium versus sham control (serum calcium [6]; PTx rats, 25 nmol/kg daily SC, 72 hours): insignificantly different from the sham control rats
- serum calcium versus sham control (serum calcium [6]; PTx rats, 40 nmol/kg daily SC, after 48 hours): slightly exceeding that of the sham control rats
- serum calcium excess over the sham control (serum calcium [6]; PTx rats, 40 nmol/kg, […] (72 hours after last dose)): more than 0.2 nmol/ml
- starting serum calcium concentration (serum calcium [6]; [7]): 1.185 nmol/µL
- starting serum calcium concentration (serum calcium [6]; [8]): 1.354 nmol/µL
- starting serum calcium concentration (serum calcium [6]; [9]): 1.251 nmol/µL
- starting serum calcium, higher level than vehicle treated PTx-rats (serum calcium [6]; treatment group 10 nmol/kg): 9.2%
- starting serum calcium, higher level than vehicle treated PTx-rats (serum calcium [6]; treatment group 25 nmol/kg): 24.8%
- starting serum calcium, higher level than vehicle treated PTx-rats (serum calcium [6]; treatment group 40 nmol/kg): 15.3%
